Measurements reported in article PMC11374673, “Discovery of isoquinoline sulfonamides as allosteric gyrase inhibitors with activity against fluoroquinolone-resistant bacteria” (Nature Chemistry, 2024).
Where “and” joins values, the source holds several entries; their conditions need not be identical. Equal values may be shown once.

Tested on: E. coli W3110
Test: Checkerboard assay with PMBN
Details: for Checkerboard well reading (growth), Average values: average of 3 wells; for Checkerboard well reading (growth): single wells (triplicate)
[1] = LEI-801 0.78125 µM + PMBN 0.5 µM
[2] = LEI-801 0.78125 µM + PMBN 16 µM
[3] = LEI-801 0.78125 µM + PMBN 32 µM
[4] = LEI-801 1.5625 µM + PMBN 0.5 µM

O=S(=O)(NC[C@H]1CC[C@@H](c2ccc(-c3ccc(F)nc3)cc2)N1)c1cccc2cnccc12 [LEI-801]
MIC (Escherichia coli, W3110): 200 µM | Checkerboard well reading (growth), Average values (LEI-801 0.78125 µM + PMBN 0 µM): 0.7994 | Checkerboard well reading (growth) (LEI-801 0.78125 µM + PMBN 0 µM): 0.8278 and 0.8 and 0.7705 | Checkerboard well reading (growth), Average values [1]: 0.7351 | Checkerboard well reading (growth) [1]: 0.7319 and 0.7576 and 0.7157 | Checkerboard well reading (growth), Average values (LEI-801 0.78125 µM + PMBN 1 µM): 0.8267 | Checkerboard well reading (growth) (LEI-801 0.78125 µM + PMBN 1 µM): 0.8444 and 0.8247 and 0.811 | Checkerboard well reading (growth), Average values (LEI-801 0.78125 µM + PMBN 2 µM): 0.8646 | Checkerboard well reading (growth) (LEI-801 0.78125 µM + PMBN 2 µM): 0.8699 and 0.8873 and 0.8367 | Checkerboard well reading (growth), Average values (LEI-801 0.78125 µM + PMBN 4 µM): 0.6877 | Checkerboard well reading (growth) (LEI-801 0.78125 µM + PMBN 4 µM): 0.7078 and 0.6767 and 0.6785 | Checkerboard well reading (growth), Average values (LEI-801 0.78125 µM + PMBN 8 µM): 0.5094 | Checkerboard well reading (growth) (LEI-801 0.78125 µM + PMBN 8 µM): 0.4316 and 0.5477 and 0.5488 | Checkerboard well reading (growth), Average values [2]: 0.3746 | Checkerboard well reading (growth) [2]: 0.3718 and 0.3921 and 0.3599 | Checkerboard well reading (growth), Average values [3]: 0.3716 | Checkerboard well reading (growth) [3]: 0.3691 and 0.3426 and 0.4032 | Checkerboard well reading (growth), Average values (LEI-801 1.5625 µM + PMBN 0 µM): 0.7861 | Checkerboard well reading (growth) (LEI-801 1.5625 µM + PMBN 0 µM): 0.8385 and 0.7794 and 0.7404 | Checkerboard well reading (growth), Average values [4]: 0.7438 | Checkerboard well reading (growth) [4]: 0.7318 and 0.7541 and 0.7454 | Checkerboard well reading (growth), Average values (LEI-801 1.5625 µM + PMBN 1 µM): 0.7641 | Checkerboard well reading (growth) (LEI-801 1.5625 µM + PMBN 1 µM): 0.7579 and 0.7961 and 0.7382 | Checkerboard well reading (growth), Average values (LEI-801 1.5625 µM + PMBN 2 µM): 0.7789 | Checkerboard well reading (growth) (LEI-801 1.5625 µM + PMBN 2 µM): 0.7943 and 0.7704 and 0.772 | Checkerboard well reading (growth), Average values (LEI-801 1.5625 µM + PMBN 4 µM): 0.5724 | Checkerboard well reading (growth) (LEI-801 1.5625 µM + PMBN 4 µM): 0.635 and 0.5325 and 0.5498 | Checkerboard well reading (growth), Average values (LEI-801 1.5625 µM + PMBN 8 µM): 0.3746 | Checkerboard well reading (growth) (LEI-801 1.5625 µM + PMBN 8 µM): 0.3243 and 0.3533 and 0.4462 | Checkerboard well reading (growth), Average values (LEI-801 1.5625 µM + PMBN 16 µM): 0.3394 | Checkerboard well reading (growth) (LEI-801 1.5625 µM + PMBN 16 µM): 0.3897 and 0.339 and 0.2896 | Checkerboard well reading (growth), Average values (LEI-801 1.5625 µM + PMBN 32 µM): 0.3074 | Checkerboard well reading (growth) (LEI-801 1.5625 µM + PMBN 32 µM): 0.2616 and 0.2961 and 0.3644 | Checkerboard well reading (growth), Average values (LEI-801 3.125 µM + PMBN 0 µM): 0.7892 | Checkerboard well reading (growth), Average values (LEI-801 3.125 µM + PMBN 0.5 µM): 0.6976 | Checkerboard well reading (growth), Average values (LEI-801 3.125 µM + PMBN 1 µM): 0.7008 | Checkerboard well reading (growth), Average values (LEI-801 3.125 µM + PMBN 2 µM): 0.5725 | Checkerboard well reading (growth), Average values (LEI-801 3.125 µM + PMBN 4 µM): 0.4871 | Checkerboard well reading (growth), Average values (LEI-801 3.125 µM + PMBN 8 µM): 0.2805 | Checkerboard well reading (growth), Average values (LEI-801 3.125 µM + PMBN 16 µM): 0.2397 | Checkerboard well reading (growth), Average values (LEI-801 3.125 µM + PMBN 32 µM): 0.2242 | Checkerboard well reading (growth), Average values (LEI-801 6.25 µM + PMBN 0 µM): 0.7739 | Checkerboard well reading (growth), Average values (LEI-801 6.25 µM + PMBN 0.5 µM): 0.6373 | Checkerboard well reading (growth), Average values (LEI-801 6.25 µM + PMBN 1 µM): 0.4799 | Checkerboard well reading (growth), Average values (LEI-801 6.25 µM + PMBN 2 µM): 0.2823 | Checkerboard well reading (growth), Average values (LEI-801 6.25 µM + PMBN 4 µM): 0.1833 | Checkerboard well reading (growth), Average values (LEI-801 6.25 µM + PMBN 8 µM): 0.1357 | Checkerboard well reading (growth), Average values (LEI-801 6.25 µM + PMBN 16 µM): 0.1386 | Checkerboard well reading (growth), Average values (LEI-801 6.25 µM + PMBN 32 µM): 0.1521
